# In patent US9486434B2, “Method for delivery and use of isothiocyanates for prophylaxis and/or therapy of bladder cancer” (Health Research Inc., priority 2010, dated 2016):
# Read-outs that look alike come from different tables or passages of the source.
# Tests used:
# AY-27 cells = assay: Apoptosis induction ELISA (histone-associated DNA), AY-27 cells; format: cell-based, rat; details: 24 h
# Protocol: (§1) FIG. 3. The effect of AITC on cell survival and proliferation. AITC was evaluated at the indicated concentrations in human bladder cancer UM-UC-3 cells, rat bladder cancer AY-27 cells, and normal human bladder epithelial cells (HUC). A. Cell growth inhibition, measured by MTT assay, 72-h AITC treatment. IC50 was calculated from nonlinear regression curve fit. B. Cell cycle arrest (□, subG1; ? , G1; ? , 5; ▪, G2/M), measured by flow cytometry, 24 h AITC treatment. C. Apoptosis induction, measured by an ELISA assay, 24 h AITC treatment. Mean±SE, n=3-6), *P<0.05.
# (§2) FIG. 10. The effect of NAC-AITC on cell survival and proliferation. NAC-AITC was evaluated in both UM-UC-3 cells and AY-27 cells. (A) Chemical structures of AITC and NAC-AITC. (B) Cell growth and proliferation, measured by 3-([…])-2,5-diphenyltetrazolium bromide assay, 72 h treatment with AITC or NAC-AITC at indicated concentrations. IC50 was calculated from the non-linear regression curve fit. (C) Apoptosis, measured by an enzyme-linked immunosorbent assay, 24 h NAC-AITC treatment at 15 µM. (D) Cell cycle (open bars, G1; shaded bars, S; closed bars, G2/M), measured by flow cytometry, 24 h NAC-AITC treatment at 15 μM. *P<, 0.005, compared with control.
# (§3) The effect of NAC-AITC on cell cycle progression was measured by flow cytometry as described previously. […]
# [1] = test system: rat bladder cancer AY-27 cells; assay: MTT cell growth and proliferation assay, AY-27 cells; format: cell-based; details: Rattus norvegicus, read-out: IC50, inhibition of cell proliferation
# Protocol: as §1, §2
# Assays for cell proliferation, cell cycle arrest and apoptosis. To determine the antiproliferative activity of NAC-AITC, AY-27 cells were grown in 96-well microtiter plates ([…] with 0.15 ml medium per well) for 24 h and then grown for 72 h in fresh medium (0.2 ml/well) containing a series of concentrations of NAC-AITC or solvent. Cell growth was measured at the end of treatment using the 3-([…])-2,5-diphenyltetrazolium bromide assay, from which the half maximal inhibitory concentration (IC50) of NAC-AITC was calculated. AITC was also evaluated for comparison.
# UM-UC-3 cells [2] = assay: Apoptosis induction ELISA (histone-associated DNA), UM-UC-3 cells; format: cell-based, human; details: 24 h
# Protocol: as §1, §2, §3
# UM-UC-3 cells [3] = assay: Cell cycle arrest by flow cytometry, UM-UC-3 cells; format: cell-based, human; details: 24 h
# Protocol: as §1
# FIG. 4. Effect of AITC on mitosis, tubulin expression and apoptosis in human bladder cancer UM-UC-3 cells. Cells were treated with vehicle or AITC for 24 h (each numerical value is mean±SD). A. Flow cytometry analysis for cell cycle arrest. B. Wright-Giemsa staining for counting mitotic figures. Arrows point to cells in mitosis or mitotic catastrophe. C. Immunofluorescent staining of microtubules (green color) and DNA staining with DAPI (blue color). D. Western blotting of tubulins (GAPDH as a loading control). E. Loss of mitochondrial transmembrane potential (Δψm) measured by flow cytometry. […] G. Apoptotic cells (TUNEL cells) measured by flow cytometry. […]
# as §2, with “The effect of NAC-AITC on cell survival and proliferation.” left out, “(A) Chemical structures of AITC and NAC-AITC.” left out
# The effect of NAC-AITC on cell cycle progression was measured by flow cytometry as described previously. […] Induction of apoptosis by NAC-AITC was measured using the Cell Death Detection ELISA^plus kit (Roche Diagnostics, Indianapolis, Ind.), following the manufacturer's instruction. […]
SMILES,increase in apoptotic activity (AY-27 cells; 15 μM) [fold],"IC50 ([1]; AY-27, Example 9, 72 h treatment) [µM]",increase in apoptotic activity (UM-UC-3 cells [2]; 15 μM) [fold],"cells in G2/M phase (UM-UC-3 cells [3]; NAC-AITC 15 µM, control 11-12%) [%]",increase in cytoplasmic levels of histone-associated DNA (AY-27 cells; AITC) [fold],"IC50 ([1]; AY-27, 72 h) [µM]",increase in cytoplasmic levels of histone-associated DNA (UM-UC-3 cells [2]; AITC),"cells in G2/M phase (UM-UC-3 cells [3]; AITC 7.5-15 microM, control 9.9-11.5%)",increase in subG1 population (UM-UC-3 cells [3]; AITC)
"C=CCNC(=S)SC[C@H](NC(C)=O)C(=O)O [NAC-AITC, N-acetyl-S—(N-allylthiocarbamoyl)cysteine]",10.6,9.1,8.8,55,,,,,
"C=CCN=C=S [AITC, allyl isothiocyanate]",,,,,≤ 5.2,3.3,up to 3.9 fold,up to 72%,up to 6.5 fold
